Experiments:
[1] = tested on: SHIP−/− bone marrow derived macrophages; assay: LPS-stimulated TNFα production in SHIP−/− bone marrow derived macrophages; type: cell-based, mice; conditions: SHIP−/− cells, 15 μM, 10 ng/mL LPS 2 h
Method: Bone marrow cells were aspirated from 4 to 8 week old C57B16×129Sv mixed background mice and SHIP^+/+ and SHIP^−/− mast cells prepared as described previously. Bone marrow derived macrophages from SHIP^+/+ and SHIP^−/− mice were obtained and maintained in IMDM supplemented with 10% FCS, 150 μM MTG, 2% C127 cell conditioned medium as a source of macrophage colony stimulating factor (M-CSF) (macrophage medium)
LPS stimulation of macrophages. For the analysis of LPS-stimulated TNFα production, 2×10^5 cells were plated the night before in 24 well plates in macrophage medium. The next day, the medium was changed and AQX-016A or carrier was added to cells at the indicated concentrations for 30 min prior to the addition of 10 ng/mL LPS. Supernatants were collected for TNFα determination by ELISA (BD Biosciences, Mississauga, ON, Canada). For analysis of intracellular signaling, 2×10^6 cells were plated the night before in 6 cm tissue culture plates. […] Calcium influx was monitored by spectrofluorometry. […] Total cell lysates were then prepared and analyzed for phospho-PKB, phospho-p38^MAPK, phospho-MAPK, Grb-2 (Cell Signalling, Mississauga, Ont) and SHIP^6 by immunoblot analysis.
The target specificity and biological efficacy of AQX-016A were assessed by comparing AQX-016A's effects on PI3K-regulated processes in primary SHIP^+/+ vs SHIP^−/− macrophages and mast cells. […]

LNCaP cells = assay: PKB activation in LNCaP cells, which do not express SHIP; type: cell-based, human; conditions: AQX-016A at doses up to 60 μM
Method: The ability of AQX-016A to inhibit activation of PIP3-dependent downstream signalling proteins in SHIP^+/+ vs SHIP^−/− was assessed. LPS stimulation of macrophages results in PKB phosphorylation. […] Similar protein loading was confirmed by reblotting with either antibodies to PKB or Grb2. […] Thus, AQX-016A inhibits PIP3-regulated intracellular signal transduction events in SHIP expressing hematopoietic cells, but not in SHIP-deficient hematopoietic or non-hematopoietic cells.

Cc1cc(O)c(O)c2c1[C@]1(C)CCC3C(C)(C)CCC[C@]3(C)[C@H]1C2 (some centres unmarked) [AQX-016A]
suppression of TNFα production [1]: 15%
PKB phosphorylation in LNCaP cells (LNCaP cells): no effect

Source: US20100323990A1, “SHIP 1 MODULATOR PRODRUGS” (THE UNIVERSITY OF BRITISH COLUMBIA, priority 2006, published 2010)
